Where a name gives a salt, the structure may show the parent alone.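 Where inhibition never reached the appropriate level, the endpoint shown equals the highest concentration tested. Otherwise, values were interpolated linearly from a five-concentration, 48-hour dose response in 96-well plates. The concentration for 50% growth inhibition is given as GI50.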 Activity calls are given as the source filed them. No stated cut-off is given here; in the data, active = GI50 up to about 1.1 µM and inactive = higher.
Columns and labels:
Assay in all cases: inhibition of tumour cell growth, NCI panel, 48 h
SF-295 = tested on: SF-295
SK-MEL-28 = tested on: SK-MEL-28
SNB-75 = tested on: SNB-75
SF-539 = tested on: SF-539
A498 = tested on: A498
M14 = tested on: M14
UACC-257 = tested on: UACC-257
LXFL 529 = tested on: LXFL 529
MOLT-4 = tested on: MOLT-4
A549 = tested on: A549
RPMI-8226 = tested on: RPMI-8226
HOP-92 = tested on: HOP-92
UACC-62 = tested on: UACC-62
DMS-114 = tested on: DMS-114
COLO 205 = tested on: COLO 205
SK-MEL-5 = tested on: SK-MEL-5
OVCAR-4 = tested on: OVCAR-4
SK-OV-3 = tested on: SK-OV-3
K562 = tested on: K562
XF498 = tested on: XF498
ACHN = tested on: ACHN
EKVX = tested on: EKVX
HCC 2998 = tested on: HCC 2998
U-251 = tested on: U-251
SNB-78 = tested on: SNB-78
Malme-3M = tested on: Malme-3M
HCT-116 = tested on: HCT-116
HL-60 = tested on: HL-60
OVCAR-8 = tested on: OVCAR-8
UO-31 = tested on: UO-31
RXF 393 = tested on: RXF 393
786-0 = tested on: 786-0
LOX IMVI = tested on: LOX IMVI
SN12C = tested on: SN12C
HCT-15 = tested on: HCT-15
HOP-18 = tested on: HOP-18
HOP-62 = tested on: HOP-62
CCRF-CEM = tested on: CCRF-CEM
NCI-H522 = tested on: NCI-H522
OVCAR-5 = tested on: OVCAR-5
HT-29 = tested on: HT-29
NCI-H460 = tested on: NCI-H460
SW-620 = tested on: SW-620
SF-268 = tested on: SF-268
KM12 = tested on: KM12
TK-10 = tested on: TK-10
OVCAR-3 = tested on: OVCAR-3
NCI-H226 = tested on: NCI-H226
NCI-H23 = tested on: NCI-H23
SNB-19 = tested on: SNB-19
SK-MEL-2 = tested on: SK-MEL-2
IGROV-1 = tested on: IGROV-1
KM-20L2 = tested on: KM-20L2
DLD-1 = tested on: DLD-1
M19-MEL = tested on: M19-MEL
NCI/ADR-RES = tested on: NCI/ADR-RES
MCF7 = tested on: MCF7
CAKI-1 = tested on: CAKI-1
DMS-273 = tested on: DMS-273
Hs-578T = tested on: Hs-578T
T47D = tested on: T47D
BT-549 = tested on: BT-549
SR = tested on: SR
PC-3 = tested on: PC-3
MDA-MB-231 = tested on: MDA-MB-231

Measured: GI50

O=C(OCCCl)C1OC(n2cc(F)c(=O)[nH]c2=O)CC1O (stereo not drawn)
> 100 µM: HCT-15
inactive: SF-295 > 100 µM | SK-MEL-28 > 100 µM | SNB-75 > 100 µM | SF-539 > 100 µM | A498 > 100 µM | M14 > 100 µM | UACC-257 > 100 µM | LXFL 529 > 100 µM | MOLT-4 > 100 µM | A549 > 100 µM | RPMI-8226 > 100 µM | HOP-92 57.8 µM | UACC-62 > 100 µM | DMS-114 > 100 µM | COLO 205 > 100 µM | SK-MEL-5 > 100 µM | OVCAR-4 > 100 µM | SK-OV-3 > 100 µM | K562 > 100 µM | XF498 > 100 µM | ACHN > 100 µM | EKVX > 100 µM | HCC 2998 27.7 µM | U-251 > 100 µM | SNB-78 > 100 µM | Malme-3M > 100 µM | HCT-116 > 100 µM | HL-60 > 100 µM | OVCAR-8 > 100 µM | UO-31 > 100 µM | RXF 393 > 100 µM | 786-0 > 100 µM | LOX IMVI > 100 µM | SN12C > 100 µM | HOP-18 > 100 µM | HOP-62 > 100 µM | CCRF-CEM > 100 µM | NCI-H522 > 100 µM | OVCAR-5 > 100 µM | HT-29 > 100 µM | NCI-H460 92 µM | SW-620 > 100 µM | SF-268 > 100 µM | KM12 > 100 µM | TK-10 > 100 µM | OVCAR-3 > 100 µM | NCI-H226 > 100 µM | NCI-H23 > 100 µM | SNB-19 > 100 µM | SK-MEL-2 > 100 µM | IGROV-1 > 100 µM | KM-20L2 > 100 µM | DLD-1 > 100 µM | M19-MEL > 100 µM

COc1cc(O)c(Cc2ccccc2O)c(O)c1C(=O)CCc1ccccc1 [UVARETIN]
inactive: SF-295 5.9 µM | SK-MEL-28 7 µM | SNB-75 6.92 µM | SF-539 5.41 µM | A498 1.48 µM | UACC-257 5.36 µM | MOLT-4 3.85 µM | A549 5.92 µM | RPMI-8226 2.44 µM | HOP-92 3.99 µM | UACC-62 4.4 µM | DMS-114 4.09 µM | COLO 205 5.92 µM | SK-MEL-5 3.69 µM | OVCAR-4 6.55 µM | SK-OV-3 6.15 µM | K562 5.26 µM | XF498 3.21 µM | EKVX 6.19 µM | HCC 2998 6.1 µM | U-251 5.12 µM | SNB-78 7.64 µM | NCI/ADR-RES 5.66 µM | Malme-3M 4.89 µM | HCT-116 4.31 µM | HL-60 4.43 µM | MCF7 5.81 µM | OVCAR-8 6.41 µM | UO-31 6.21 µM | RXF 393 6.07 µM | CAKI-1 5.24 µM | LOX IMVI 6.05 µM | SN12C 4.82 µM | HOP-62 2.47 µM | CCRF-CEM 6.21 µM | NCI-H522 2.3 µM | OVCAR-5 4.6 µM | HT-29 11.9 µM | NCI-H460 4.49 µM | SW-620 7.23 µM | SF-268 7.01 µM | KM12 6.81 µM | DMS-273 4.39 µM | OVCAR-3 4.58 µM | NCI-H226 6.62 µM | NCI-H23 4.17 µM | SNB-19 6.55 µM | SK-MEL-2 4.71 µM | IGROV-1 6.97 µM | KM-20L2 7.35 µM | DLD-1 7.33 µM | M19-MEL 6.07 µM
5.71 µM: HCT-15
active: HOP-18 0.713 µM

N=c1ccn2c(n1)O[C@H]1[C@H](O)[C@@H](CO)O[C@H]12 [ANCITABINE HYDROCHLORIDE]
inactive: SF-295 25.2 µM | SNB-75 532 µM | Hs-578T > 1000 µM | SF-539 44.1 µM | A498 13.6 µM | UACC-257 78.7 µM | RPMI-8226 141 µM | UACC-62 2.24 µM | COLO 205 154 µM | SK-MEL-5 9.23 µM | OVCAR-4 > 1000 µM | SK-OV-3 66.1 µM | K562 8.85 µM | XF498 > 647 µM | EKVX 62.1 µM | T47D 213 µM | BT-549 > 1000 µM | HCC 2998 33.7 µM | U-251 15.1 µM | SNB-78 242 µM | NCI/ADR-RES 2.35 µM | Malme-3M 3.03 µM | RXF 393 79.8 µM | CAKI-1 1.66 µM | SN12C 1.91 µM | HOP-18 11.2 µM | PC-3 2.79 µM | NCI-H522 47.4 µM | OVCAR-5 24.7 µM | HT-29 135 µM | MDA-MB-231 31.7 µM | SF-268 7.05 µM | DMS-273 2.34 µM | TK-10 > 1000 µM | SK-MEL-2 411 µM | IGROV-1 151 µM | KM-20L2 > 562 µM | DLD-1 652 µM | M19-MEL 7.21 µM
active: M14 0.253 µM | MOLT-4 0.207 µM | A549 0.198 µM | DMS-114 0.406 µM | ACHN 0.291 µM | HCT-116 0.282 µM | HL-60 0.346 µM | MCF7 0.522 µM | OVCAR-8 0.658 µM | 786-0 0.57 µM | LOX IMVI 0.347 µM | SR 0.183 µM | HOP-62 0.292 µM | NCI-H460 0.154 µM | NCI-H23 0.406 µM

From ChEMBL document CHEMBL1201862, “PubChem BioAssay data set” (2004)
